Converted amounts (≈) assume the structure as drawn.
Details: for aqueous solubility: pH 6.8

Row | MDR1-MDCK efflux ratio | intrinsic clearance, human liver microsomes | intrinsic clearance, rat liver microsomes | aqueous solubility | Structure (SMILES)
1 | 0.625 | 26.3 mL/min/kg | 1660 mL/min/kg | 54.1 µg/mL (≈ 157 µM) | CN(Cc1c(F)cccc1Cl)C(=O)c1ccc(-n2ccnc2)nc1
2 | 13.3 | 99.9 mL/min/kg | 581 mL/min/kg | – | Clc1cccc(Cl)c1Cc1n[nH]c(CCCn2cccn2)n1
3 | 0.608 | 444 mL/min/kg | 2220 mL/min/kg | – | COCc1ccccc1COC(=O)c1ccc(C)nc1
4 | 0.48 | 36.7 mL/min/kg | 465 mL/min/kg | 3.9 µg/mL (≈ 13.8 µM) | Cn1ncc2c(Oc3cccc(C(C)(C)C)c3)ncnc21
5 | 0.687 | ≤ 4.74 mL/min/kg | 80.1 mL/min/kg | 45.8 µg/mL (≈ 171 µM) | CCOC(=O)c1cccnc1-c1cccc2ccnn12
6 | – | – | – | 17.3 µg/mL (≈ 63.5 µM) | CSCc1noc(COc2ccc(F)cc2F)n1
7 | 3.5 | 43.2 mL/min/kg | 2740 mL/min/kg | 57.1 µg/mL (≈ 165 µM) | O=C(C1CCC1)N1CCC(c2ncc(-c3ccc(F)c(F)c3)[nH]2)CC1
8 | 0.69 | 200 mL/min/kg | 1640 mL/min/kg | 37.8 µg/mL (≈ 108 µM) | O=C(NCC1=CCCN(Cc2cc(F)ccc2Cl)C1)c1ccco1

Second part, the compound before the results:

Row | Structure (SMILES) | MDR1-MDCK efflux ratio | intrinsic clearance, human liver microsomes | intrinsic clearance, rat liver microsomes | aqueous solubility
9 | CC1CCC(CNC2(CCO)CCOCC2)CC1 (centres undefined) | 1.29 | ≤ 4.74 mL/min/kg | 1200 mL/min/kg | –
10 | Cc1sc(C)c(C(=O)NC2(c3ccc(C(=O)O)cc3)CC2)c1Cc1ccc(C(F)(F)F)cc1 | 8.19 | ≤ 4.74 mL/min/kg | 31.2 mL/min/kg | 51.4 µg/mL (≈ 109 µM)
11 | Cc1cc(C(=O)N(C)CC2CCN(CCO)CC2)cc(C)n1 | 1.95 | 7.92 mL/min/kg | 29.2 mL/min/kg | –
12 | O=C(NCCc1nnc2n1CCC2)c1ccc2c(c1)CCC2 | 82.7 | ≤ 4.74 mL/min/kg | 45.1 mL/min/kg | 23.6 µg/mL (≈ 79.8 µM)
13 | Cc1c(C(=O)Nc2ccc(CO)cc2)nnn1Cc1ccc(Cl)c(Cl)c1 | 0.564 | 5.12 mL/min/kg | 50.8 mL/min/kg | –
14 | O=C(Nc1ccn(-c2ncccc2Cl)n1)c1csnn1 | – | – | – | 28.5 µg/mL (≈ 92.9 µM)
15 | COc1ccc(Nc2nc(N)nc(CN3CCN(Cc4ccccc4)CC3)n2)cc1 | 10.9 | 25 mL/min/kg | 594 mL/min/kg | 65.1 µg/mL (≈ 161 µM)
16 | O=C(CN1CCCN(c2ccc(C(F)(F)F)cn2)CC1)Nc1ccccc1 | 0.748 | 112 mL/min/kg | 807 mL/min/kg | 1.7 µg/mL (≈ 4.49 µM)
17 | O=c1[nH]c2ccccc2n1C1CCN(S(=O)(=O)Cc2ccccc2)CC1 | – | 79.4 mL/min/kg | 6660 mL/min/kg | 2.65 µg/mL (≈ 7.13 µM)
18 | CC(C)Cn1cnc2c1c(=O)[nH]c(=O)n2CC(C)C | 1.96 | ≤ 4.74 mL/min/kg | 73.9 mL/min/kg | 55.3 µg/mL (≈ 209 µM)
19 | CN(C)C(=O)COC(=O)Cc1ccc(OC(=O)c2ccc(NC(=N)N)cc2)cc1 | 0.707 | 102 mL/min/kg | 936 mL/min/kg | 77.6 µg/mL (≈ 195 µM)
20 | CN(C)c1cccc(C2CCN(c3ncccn3)CC2)n1 | – | 94.4 mL/min/kg | 2250 mL/min/kg | 16.9 µg/mL (≈ 59.5 µM)
21 | Cc1ccc(CNC(=O)CN2CCC(n3nnc4cc(C(F)(F)F)ccc43)CC2)cc1 | – | 41.4 mL/min/kg | 168 mL/min/kg | 11.5 µg/mL (≈ 26.6 µM)
22 | CN(C)c1ccnc(C(=O)Nc2ccnn2-c2ccc(C#N)cc2)c1 | – | 75.2 mL/min/kg | 446 mL/min/kg | –
23 | CC(C)N1CCN(CCCSc2ncc[nH]2)CC1 | – | ≤ 4.74 mL/min/kg | 87.1 mL/min/kg | –

From the Biogen ADME set (Fang et al. 2023)
